Source: ChEMBL document CHEMBL5653631, “A Potent and Selective ULK1 Inhibitor Suppresses Autophagy and Sensitizes Cancer Cells to Nutrient Stress” (iScience, 2018)
Values belong to the compound of their own block, whether it stands above or below them.

Assays:
[1] = molecular target: T1, Serine/threonine-protein kinase Nek9 (Homo sapiens) (UniProt Q8TD19); experiment: Inhibition of human recombinant NEK9 at 500 nM related to control ULK1
T1 sequence (whole entry): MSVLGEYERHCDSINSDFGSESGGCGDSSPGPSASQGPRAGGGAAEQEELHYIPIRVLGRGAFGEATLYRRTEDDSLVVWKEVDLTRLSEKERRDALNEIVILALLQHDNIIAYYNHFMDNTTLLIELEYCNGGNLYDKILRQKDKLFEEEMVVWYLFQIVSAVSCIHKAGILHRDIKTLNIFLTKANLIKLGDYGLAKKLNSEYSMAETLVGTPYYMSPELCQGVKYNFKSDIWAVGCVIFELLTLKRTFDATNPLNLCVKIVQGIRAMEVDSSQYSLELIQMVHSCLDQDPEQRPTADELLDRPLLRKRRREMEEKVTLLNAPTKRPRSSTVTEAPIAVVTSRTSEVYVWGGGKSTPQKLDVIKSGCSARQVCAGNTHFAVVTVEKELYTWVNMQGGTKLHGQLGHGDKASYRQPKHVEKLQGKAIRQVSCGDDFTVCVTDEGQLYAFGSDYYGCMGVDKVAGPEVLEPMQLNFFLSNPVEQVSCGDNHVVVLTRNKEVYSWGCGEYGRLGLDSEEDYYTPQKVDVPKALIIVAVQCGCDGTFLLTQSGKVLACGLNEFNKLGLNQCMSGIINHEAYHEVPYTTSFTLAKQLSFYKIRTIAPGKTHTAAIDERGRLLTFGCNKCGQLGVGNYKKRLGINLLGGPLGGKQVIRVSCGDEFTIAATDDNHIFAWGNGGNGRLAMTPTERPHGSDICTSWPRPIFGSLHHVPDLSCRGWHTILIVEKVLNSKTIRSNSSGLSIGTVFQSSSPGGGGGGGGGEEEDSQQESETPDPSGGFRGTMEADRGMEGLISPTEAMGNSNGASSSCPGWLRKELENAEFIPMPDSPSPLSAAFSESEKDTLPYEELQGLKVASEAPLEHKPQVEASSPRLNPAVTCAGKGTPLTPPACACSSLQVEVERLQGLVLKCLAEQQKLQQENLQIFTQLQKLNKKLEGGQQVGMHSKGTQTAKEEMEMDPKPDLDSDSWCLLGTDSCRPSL

[2] = molecular target: Mitogen-activated protein kinase 10 (Homo sapiens) (UniProt P53779); experiment: Inhibition of human recombinant JNK3 at 40 nM in presence of ATP by radiometric assay relative to control
Mitogen-activated protein kinase 10 (Homo sapiens), sequence (P53779 whole entry): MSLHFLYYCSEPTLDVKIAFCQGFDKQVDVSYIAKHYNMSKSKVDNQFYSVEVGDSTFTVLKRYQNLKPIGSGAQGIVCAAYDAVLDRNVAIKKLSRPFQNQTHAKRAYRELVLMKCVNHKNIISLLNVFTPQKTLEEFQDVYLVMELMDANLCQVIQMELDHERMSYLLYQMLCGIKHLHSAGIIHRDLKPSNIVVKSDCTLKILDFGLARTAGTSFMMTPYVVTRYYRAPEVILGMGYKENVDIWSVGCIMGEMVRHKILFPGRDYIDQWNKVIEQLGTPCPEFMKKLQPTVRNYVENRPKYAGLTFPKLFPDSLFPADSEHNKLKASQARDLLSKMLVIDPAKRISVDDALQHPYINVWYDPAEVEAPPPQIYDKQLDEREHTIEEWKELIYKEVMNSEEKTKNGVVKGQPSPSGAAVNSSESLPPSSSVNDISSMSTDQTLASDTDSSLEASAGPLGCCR

[3] = molecular target: T2, Ephrin type-B receptor 2 (Homo sapiens) (UniProt P29323); experiment: Inhibition of human recombinant EphB2 at 15 nM related to control ULK1
T2 sequence (whole entry): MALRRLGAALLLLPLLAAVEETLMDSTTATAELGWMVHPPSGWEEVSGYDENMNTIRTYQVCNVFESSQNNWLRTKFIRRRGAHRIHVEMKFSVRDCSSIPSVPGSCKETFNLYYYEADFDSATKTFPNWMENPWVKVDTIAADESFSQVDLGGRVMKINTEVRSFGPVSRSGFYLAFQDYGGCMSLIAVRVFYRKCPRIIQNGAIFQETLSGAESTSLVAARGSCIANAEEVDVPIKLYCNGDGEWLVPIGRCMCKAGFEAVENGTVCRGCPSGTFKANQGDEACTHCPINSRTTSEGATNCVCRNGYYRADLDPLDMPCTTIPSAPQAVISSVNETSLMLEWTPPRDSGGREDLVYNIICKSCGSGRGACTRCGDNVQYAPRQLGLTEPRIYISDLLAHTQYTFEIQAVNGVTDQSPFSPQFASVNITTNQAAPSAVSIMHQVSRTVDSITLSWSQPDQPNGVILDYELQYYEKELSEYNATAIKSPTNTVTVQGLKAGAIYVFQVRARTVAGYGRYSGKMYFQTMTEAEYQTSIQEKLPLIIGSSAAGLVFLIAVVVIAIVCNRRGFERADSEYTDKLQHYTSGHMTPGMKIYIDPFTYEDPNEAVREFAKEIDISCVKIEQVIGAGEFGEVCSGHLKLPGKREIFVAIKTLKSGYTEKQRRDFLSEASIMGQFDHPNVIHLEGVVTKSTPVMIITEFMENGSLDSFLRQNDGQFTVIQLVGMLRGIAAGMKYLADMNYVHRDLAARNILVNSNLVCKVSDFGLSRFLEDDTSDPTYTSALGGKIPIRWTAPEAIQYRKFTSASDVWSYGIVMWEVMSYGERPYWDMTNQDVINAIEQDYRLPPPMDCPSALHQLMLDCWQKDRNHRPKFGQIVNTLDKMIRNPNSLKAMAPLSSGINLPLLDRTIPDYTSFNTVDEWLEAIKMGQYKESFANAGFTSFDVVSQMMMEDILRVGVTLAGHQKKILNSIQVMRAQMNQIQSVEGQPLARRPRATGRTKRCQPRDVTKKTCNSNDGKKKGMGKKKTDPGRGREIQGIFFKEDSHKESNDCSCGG

[4] = molecular target: T3, Eukaryotic elongation factor 2 kinase (Homo sapiens) (UniProt O00418); experiment: Inhibition of human recombinant eEF2K at 15 nM related to control ULK1
T3 sequence (whole entry): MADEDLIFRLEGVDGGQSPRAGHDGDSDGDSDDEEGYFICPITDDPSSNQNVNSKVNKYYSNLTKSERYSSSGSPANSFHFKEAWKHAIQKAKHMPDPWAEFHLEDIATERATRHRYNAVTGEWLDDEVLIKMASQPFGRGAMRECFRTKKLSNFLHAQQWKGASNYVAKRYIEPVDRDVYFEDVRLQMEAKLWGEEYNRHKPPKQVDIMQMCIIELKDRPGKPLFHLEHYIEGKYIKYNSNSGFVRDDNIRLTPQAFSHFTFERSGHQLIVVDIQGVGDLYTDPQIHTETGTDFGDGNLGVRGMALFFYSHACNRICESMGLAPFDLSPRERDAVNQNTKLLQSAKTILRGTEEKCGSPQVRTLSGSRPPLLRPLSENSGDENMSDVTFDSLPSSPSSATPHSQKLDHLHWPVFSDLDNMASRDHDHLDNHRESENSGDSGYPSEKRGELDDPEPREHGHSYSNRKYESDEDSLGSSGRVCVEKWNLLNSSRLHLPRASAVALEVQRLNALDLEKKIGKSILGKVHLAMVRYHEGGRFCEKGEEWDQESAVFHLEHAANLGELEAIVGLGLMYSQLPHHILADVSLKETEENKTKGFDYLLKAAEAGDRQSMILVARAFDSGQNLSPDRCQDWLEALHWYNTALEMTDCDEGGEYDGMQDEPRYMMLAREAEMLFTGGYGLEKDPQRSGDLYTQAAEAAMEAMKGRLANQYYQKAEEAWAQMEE

Structure (SMILES): CNC(=O)c1ccccc1Oc1nc(Nc2cc(OC)c(OC)c(OC)c2)ncc1Br
fold change (FC) [1]: 0

inhibition [2]: 0%
Structure (SMILES): O=C(N[C@@H](C1CC1)C(F)(F)F)c1cc(-c2cnn3cc(-c4ccc(F)cc4)cnc23)cs1

fold change (FC) [3]: 0.08
fold change (FC) [4]: 0.11
Structure (SMILES): CC(C)[C@H](NC(=O)c1cc(-c2cnn3cc(-c4ccc(OCCN5CCCCC5)cc4)cnc23)cs1)C(F)(F)F
